Measurements: patent publication US7655645B2, “Indole derivatives” (N.V. Organon, priority 2007, dated 2010)
pEC50: −log10 of the molar value.

What follows are compounds tested against T1, human CB1 receptor (Homo sapiens, UniProt P21554) (assay: In-vitro determination of efficacy and potency at the human CB1 receptor expressed in CHO cells (luciferase reporter assay)). Details: CHO cells expressing the human CB1 receptor and a luciferase reporter gene; 5 h incubation at 37° C.
T1 construct: expressed in transfected cells; host or cells: CHO (Chinese Hamster Ovary) cells
T1 sequence (P21554 whole entry): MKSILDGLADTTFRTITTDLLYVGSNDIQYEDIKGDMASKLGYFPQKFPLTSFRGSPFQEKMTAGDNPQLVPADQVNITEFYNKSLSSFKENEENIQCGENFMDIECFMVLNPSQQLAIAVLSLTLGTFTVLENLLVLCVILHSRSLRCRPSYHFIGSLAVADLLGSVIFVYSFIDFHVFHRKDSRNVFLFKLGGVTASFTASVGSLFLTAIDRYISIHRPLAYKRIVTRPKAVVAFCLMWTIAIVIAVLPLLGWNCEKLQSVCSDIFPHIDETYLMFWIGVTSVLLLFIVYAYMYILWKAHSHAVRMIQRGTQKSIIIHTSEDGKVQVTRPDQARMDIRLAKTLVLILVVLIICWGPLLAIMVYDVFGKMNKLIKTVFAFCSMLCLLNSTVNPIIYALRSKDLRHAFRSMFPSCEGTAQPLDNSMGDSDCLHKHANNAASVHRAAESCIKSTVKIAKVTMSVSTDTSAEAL
Format: cell-based
Protocol: Methods to determine receptor binding as well as in vitro biological activity of cannabinoid receptor modulators are well known in the art. In general, expressed receptor is contacted with the compound to be tested and binding or stimulation or inhibition of a functional response is measured.
In-Vitro Determination of Efficacy and Potency at the Human CB1 Receptor Expressed in CHO Cells
Chinese Hamster Ovary (CHO) cells expressing the human CB1 receptor and a luciferase reporter gene were suspended in phenol red/serum free DMEM/F-12 nut mix containing penicillin/streptomycin (50 U/50 μg/ml) and fungizone (1 μg/ml) and seeded into 96 well plates at a density of 3×10^4 cells per well (100 μl final volume). Cells were incubated overnight (approx. 18 h at 37° C., 5% CO2/95% air) prior to assay.
The test compound (10 mM solution in dimethylsulfoxide) was diluted in F12 Nut Mix to give a range of stock solutions from 0.11 mM to 0.11 nM. The stock solutions (10 μl) were added directly to the relevant wells. The plates were incubated at 37° C. for 5 h to allow agonist-induced expression of the luciferase enzyme. Under subdued light, LucLite substrate (Packard; reconstituted as per manufacturer's instructions; 100 μl) was added to each well. Plates were covered with Top Seal and then incubated at room temperature for 5 minutes before counting on the Packard TopCount (single photon counting, 0.01 minute count time, 5 minute count delay).
A “best-fit” curve was fitted by a minimum sum of squares method to the plot of counts per second (CPS) against compound concentration (M) to obtain an EC50 value.
For `NC(=O)CN1CCN(Cc2nc(-c3cn(CC4CCOCC4)c4c(Cl)cccc34)ns2)CC1` [Example 1, 3-({5-[4-(Carbamoylmethyl)piperazin-1-yl]methyl}-[1,2,4]-thiadiazol-3-yl)-7-chloro-1-(tetrahydropyran-4-yl)methyl-1H-indole], the pEC50 was 7.80. Compound `CCNC(=O)CN1CCN(Cc2nc(-c3cn(CC4CCOCC4)c4c(Cl)cccc34)ns2)CC1` [Example 3, 7-Chloro-3-({5-[4-(ethylcarbamoyl)methylpiperazin-1-yl]methyl}-[1,2,4]-thiadiazol-3-yl)-1-(tetrahydropyran-4-yl)methyl-1H-indole] has a pEC50 of 7.40. With `CCc1cccc2c(-c3nsc(CN4CCN(CC(=O)NC(C)C)CC4)n3)cn(CC3CCOCC3)c12` [Example 6b, 7-Ethyl-3-({5-[4-(N-isopropylcarbamoyl)methylpiperazin-1-yl]methyl}-[1,2,4]-thiadiazol-3-yl)-1-(tetrahydropyran-4-yl)methyl-1H-indole] the pEC50 was 7.30. Work on `CCc1cccc2c(-c3nsc(CN4CCN(CC(=O)OC)CC4)n3)cn(CC3CCOCC3)c12` [Example 6d, 7-Ethyl-3-({5-[4-(methoxycarbonylmethyl)piperazin-1-yl]methyl}-[1,2,4]-thiadiazol-3-yl)-1-(tetrahydropyran-4-yl)methyl-1H-indole] yielded a pEC50 of 7.20. `COc1cccc2c(-c3nsc(CN4CCN(CC(N)=O)CC4)n3)cn(CC3CCOCC3)c12` [Example 7a, 3-({5-[4-(Carbamoylmethyl)piperazin-1-yl]methyl}-[1,2,4]-thiadiazol-3-yl)-7-methoxy-1-(tetrahydropyran-4-yl)methyl-1H-indole] showed a pEC50 of 7.00. For `NC(=O)CN1CCN(Cc2nc(-c3cn(CC4CCOCC4)c4c(Cl)cccc34)no2)CC1` [Example 11, 3-({5-[4-(Carbamoylmethyl)piperazin-1-yl]methyl}-[1,2,4]-oxadiazol-3-yl)-7-chloro-1-(tetrahydropyran-4-yl)methyl-1H-indole], the pEC50 was 7.10. Compound `O=S1(=O)CCC(Cn2cc(-c3noc(CN4CCN(Cc5ncon5)CC4)n3)c3cccc(Cl)c32)CC1` [Example 17, 7-Chloro-3-({5-[4-([1,2,4]oxadiazol-3-ylmethyl)piperazin-1-yl]methyl}-[1,2,4]-oxadiazol-3-yl)-1-(1,1-dioxo-hexahydrothiopyran-4-yl)methyl-1H-indole] has a pEC50 of 6.80. Work on `NC(=O)CN1CCCN(Cc2nc(-c3cn(CC4CCOCC4)c4c(Cl)cccc34)no2)CC1` [Example 21d, 3-{5-[4-(Carbamoylmethyl)-homopiperazin-1-ylmethyl]-[1,2,4]-oxadiazol-3-yl}-7-chloro-1-[(tetrahydropyran-4-yl)methyl]-1H-indole] yielded a pEC50 of 7.20. For `CNC(=O)CN1CCN(Cc2nc(-c3cn(CC4CCOCC4)c4c(Cl)cccc34)no2)C[C@H]1CO` [Example 24, (S)-7-Chloro-3-[5-[3-hydroxymethyl-4-(methylcarbamoylmethyl)piperazin-1-ylmethyl]-[1,2,4]-oxadiazol-3-yl]-1-[(tetrahydropyran-4-yl)methyl]-1H-indole], the pEC50 was 7.90. Compound `NC(=O)CN1CCN(Cc2csc(-c3cn(CC4CCOCC4)c4c(Cl)cccc34)n2)CC1` [Example 31, 3-({4-[4-(Carbamoylmethyl)piperazin-1-yl]methyl}-[1,3]-thiazol-2-yl)-7-chloro-1-(tetrahydropyran-4-yl)methyl-1H-indole] has a pEC50 of 7.20.
